Assay results reported in US8053627B2, “Methods for treating demyelination disorders” (University of Chicago, priority 2005, dated 2011).
“And” between values parts separate entries of the source, which are not always exact repeats. Equal values may be shown once. Read-outs that look alike come from different tables or passages of the source.

Experiments:
[1] = test system: Stat1; assay: Stat1 nuclear translocation assay in mixed primary oligodendrocyte cultures; format: cell-based, mice; conditions: 100 U/mL IFN-γ for 30 min, one hundred PLP positive cells counted
Protocol: Mixed primary oligodendrocyte cultures were prepared as previously described (Baerwald et al., 2000). Briefly, brain tissue was harvested from 2-3-day-old newborn pups of PLP/SOCS1 and C57B1/6J matings. Because the litters contained transgenic and wild-type pups, the brain of each animal was processed individually, cultured separately, and later genotype matched. Each brain was digested separately using 0.25% trypsin and 10 μg/ml of DNAaseI (Invitrogen) in Dulbecco's modified Eagle's medium (DMEM) for 20 min at 37° C., and cells were cultured on separate poly-D-lysine-coated […] flasks (Sigma-Aldrich). The cultures were maintained with 10% fetal bovine serum DMEM at 37° C. with 5% CO2 for 12 days, and then switched to a defined medium containing […], 50 μg/ml of transferrin, 30 nM of selenium, 10 nM of biotin, 10 nM of progesterone, 15 nM of T3, 0.1% bovine serum albumin, and 1% ampicillin-streptomycin (Sigma-Aldrich). […] One hundred PLP positive cells were manually counted in both wild-type and PLP/SOCS1 cultures. […]
The responsiveness of PLP/SOCS1 oligodendrocytes to IFN-γ was studied in primary mixed glial cultures. […] In contrast, Stat1 nuclear translocation was detected only in occasional PLP positive oligodendrocytes (6±2 cells) following IFN-γ stimulation (p<0.05).

[2] = test system: EAE-induced demyelination; conditions: for Mean of maximum clinical score (mean ± S.D.): 0–5 point scale; for Day of onset of disease (PID: postimmunization day): n = 25; for CD3 T cell infiltration in the lumbar spinal cord / EAE-induced demyelination: myelin, axons and oligodendrocytes in the lumbar spinal cord: PID 17
[3] = PERK+/+ background, listed as INF-γ
[4] = PERK+/+ background, peak of disease

## IFN-γ: pleotropic cytokine secreted by activated T lymphocytes and natural killer cells; delivered to the CNS by transgene or added as recombinant protein
[1]; PLP/SOCS1 cultures
  PLP positive oligodendrocytes with Stat1 nuclear translocation: 6±2 cells
[1]; wild-type cultures
  PLP positive oligodendrocytes with Stat1 nuclear translocation: 96±3 cells
[2]; DOX− double mice
  Incidence of death: 0/25
  Mean of maximum clinical score (mean ± S.D.): 1.63 ± 0.51
  Day of onset of disease (PID: postimmunization day): 14.7 ± 1.4
[2]; DOX− double mice, PID17
  MBP mRNA in the spinal cord vs age-matched naïve mice: not significantly decreased
[2]; DOX− double mice, listed as INF-γ
  Incidence of hind limb paralysis: 2 of 25 and 2/25
[2]; DOX− triple mice (PERK+/−)
  Incidence of death: 3/25
  Incidence of hind limb paralysis: 18/25
  Mean of maximum clinical score (mean ± S.D.): 2.71 ± 1.11
  Day of onset of disease (PID: postimmunization day): 13.6 ± 0.8
[2]; EAE onset
  CD3 positive T cell infiltration in the spinal cord: did not significantly affect
  CD11b positive monocyte infiltration in the spinal cord: increased
  PERK-eIF2α pathway in oligodendrocytes (p-PERK, p-eIF2α colocalization with CC1): markedly activated
[2]; EAE onset, PID14
  expression of iNOs, TNF-a, IL-2, IL-12 and IL-10 in the spinal cord (real time PCR): strongly enhanced
[2]; EAE onset, PID14, listed as INF-γ
  expression of iNOs, TNF-a, IL-2, IL-12 and IL-10 in the spinal cord (real time PCR): increased
[2]; PERK+/+ background
  CD3 T cell infiltration in the lumbar spinal cord: reduced
  EAE-induced demyelination: myelin, axons and oligodendrocytes in the lumbar spinal cord: protected
[2]; [3]
  CD3 T cell infiltration in the lumbar spinal cord: lower
  EAE-induced demyelination: myelin, axons and oligodendrocytes in the lumbar spinal cord: remained almost intact
[2]; [4]
  expression of IL-2 in spinal cord: decreased
  expression of IL-12 in spinal cord: decreased
  expression of IL-23 in spinal cord: decreased
[2]; PID14
  expression of IL-2 and IL-5 in the spinal cord (real time PCR): did not affect
[2]; mice heterozygous for the PERK mutation
  amelioration of EAE: did not ameliorate
[2]; peak of disease
  CD11b positive monocyte infiltration: did not change
  expression of IL-5 in spinal cord: did not significantly affect
  expression of IL-10 in spinal cord: did not significantly affect
  expression of iNOs or TNF-γ: did not significantly affect
